Data from PubChem BioAssay AID328 (DTP/NCI, 2004).
Several values for one entry are separate records, joined by “and”; a condition that tells them apart may be missing. Identical values can stand only once. Inconclusive results and toxic doses are left out.

System: BDF1 mice, P388 leukemia ip, median survival T/C
Experiment: NCI In Vivo Anticancer Drug Screen. Data for tumor model P388 Leukemia (intraperitoneal) in B6D2F1 (BDF1) mice
Conditions: endpoint: median survival time, higher = longer survival
In short: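 Vehicle-dosed animals serve as the reference; survival of compound-dosed, tumour-implanted mice is divided by it.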

[1] = dose: 50.0 mg/kg/injection, schedule: Q01DX009 (ip), vehicle: saline with Tween-80
[2] = dose: 100.0 mg/kg/injection, schedule: Q01DX009 (ip), vehicle: saline with Tween-80
[3] = dose: 100.0 mg/kg/injection, schedule: Q04DX003 (ip), vehicle: saline with Tween-80
[4] = dose: 200.0 mg/kg/injection, schedule: Q01DX009 (ip), vehicle: saline with Tween-80
[5] = dose: 200.0 mg/kg/injection, schedule: Q04DX003 (ip), vehicle: saline with Tween-80
[6] = dose: 400.0 mg/kg/injection, schedule: Q04DX003 (ip), vehicle: saline with Tween-80
[7] = dose: 50.0 mg/kg/injection, schedule: Q01DX010 (ip), vehicle: saline
[8] = dose: 50.0 mg/kg/injection, schedule: Q01DX009 (ip), vehicle: saline

O=CNc1ccccc1Cl
T/C (dose: 100.0 mg/kg/injection, schedule: Q01DX001 (ip), vehicle: saline with Tween-80): 112 % of control | T/C (dose: 200.0 mg/kg/injection, schedule: Q01DX001 (ip), vehicle: saline with Tween-80): 91 % of control | T/C (dose: 400.0 mg/kg/injection, schedule: Q01DX001 (ip), vehicle: saline with Tween-80): 91 % of control

CCCN([Si](C)(C)C)[Si](C)(C)C
T/C [1]: 107 % of control | T/C [2]: 107 % of control | T/C [3]: 100 % of control | T/C [4]: 100 % of control | T/C [5]: 104 % of control

OCCCNc1cccc2ccccc12
T/C (dose: 100.0 mg/kg/injection, schedule: Q01DX009 (ip), vehicle: Klucel (hydroxypropylcellulose) (HPC)): 105 % of control | T/C (dose: 100.0 mg/kg/injection, schedule: Q04DX003 (ip), vehicle: Klucel (hydroxypropylcellulose) (HPC)): 100 % of control | T/C (dose: 200.0 mg/kg/injection, schedule: Q01DX009 (ip), vehicle: Klucel (hydroxypropylcellulose) (HPC)): 100 % of control | T/C (dose: 200.0 mg/kg/injection, schedule: Q04DX003 (ip), vehicle: Klucel (hydroxypropylcellulose) (HPC)): 100 % of control | T/C (dose: 400.0 mg/kg/injection, schedule: Q01DX009 (ip), vehicle: Klucel (hydroxypropylcellulose) (HPC)): 110 % of control | T/C (dose: 400.0 mg/kg/injection, schedule: Q04DX003 (ip), vehicle: Klucel (hydroxypropylcellulose) (HPC)): 100 % of control

O=C1/C(=C/c2ccccc2)Cc2ccccc21
T/C (dose: 25.0 mg/kg/injection, schedule: Q01DX009 (ip), vehicle: saline with Tween-80): 96 % of control | T/C [1]: 96 % of control | T/C [2]: 94 % of control | T/C [3]: 107 % of control | T/C [4]: 96 % of control | T/C [5]: 100 % of control | T/C [6]: 99 % of control

Nc1nc(SCC(=O)c2ccccc2)c2[nH]cnc2n1
T/C (dose: 100.0 mg/kg/injection, schedule: Q01DX009 (ip), vehicle: saline sonified): 115 % of control | T/C [3]: 109 % of control | T/C (dose: 200.0 mg/kg/injection, schedule: Q01DX009 (ip), vehicle: saline sonified): 110 % of control | T/C [5]: 113 % of control | T/C (dose: 400.0 mg/kg/injection, schedule: Q01DX009 (ip), vehicle: saline sonified): 110 % of control | T/C [6]: 118 % of control

OCC1OCC(O)C(O)C1O (centres undefined)
T/C (dose: 12.5 mg/kg/injection, schedule: Q01DX010 (ip), vehicle: saline): 91 % of control | T/C (dose: 25.0 mg/kg/injection, schedule: Q01DX010 (ip), vehicle: saline): 108 % of control | T/C (dose: 32.0 mg/kg/injection, schedule: Q03HX024 (ip), vehicle: saline): 95 % of control | T/C [7]: 108 % of control | T/C (dose: 64.0 mg/kg/injection, schedule: Q03HX024 (ip), vehicle: saline): 87 % of control | T/C (dose: 100.0 mg/kg/injection, schedule: Q01DX010 (ip), vehicle: saline): 91 % of control | T/C (dose: 128.0 mg/kg/injection, schedule: Q03HX024 (ip), vehicle: saline): 100 % of control | T/C (dose: 128.0 mg/kg/injection, schedule: Q04DX003 (ip), vehicle: saline): 87 % of control and 104 % of control | T/C (dose: 200.0 mg/kg/injection, schedule: Q01DX010 (ip), vehicle: saline): 110 % of control | T/C (dose: 256.0 mg/kg/injection, schedule: Q04DX003 (ip), vehicle: saline): 91 % of control and 100 % of control | T/C (dose: 512.0 mg/kg/injection, schedule: Q04DX003 (ip), vehicle: saline): 90 % of control | T/C (dose: 800.0 mg/kg/injection, schedule: Q01DX010 (ip), vehicle: saline): 115 % of control | T/C (dose: 1024.0 mg/kg/injection, schedule: Q04DX003 (ip), vehicle: saline): 100 % of control

O=C1C(CO)=C[C@@H](O)[C@H]2O[C@@H]12
T/C (dose: 0.75 mg/kg/injection, schedule: Q01DX010 (ip), vehicle: saline): 95 % of control | T/C (dose: 1.5 mg/kg/injection, schedule: Q01DX010 (ip), vehicle: saline): 110 % of control | T/C (dose: 3.0 mg/kg/injection, schedule: Q01DX010 (ip), vehicle: saline): 95 % of control and 120 % of control | T/C (dose: 6.0 mg/kg/injection, schedule: Q01DX010 (ip), vehicle: saline): 95 % of control | T/C (dose: 6.2 mg/kg/injection, schedule: Q01DX001 (ip), vehicle: saline): 155 % of control | T/C (dose: 12.0 mg/kg/injection, schedule: Q01DX010 (ip), vehicle: saline): 100 % of control | T/C (dose: 12.5 mg/kg/injection, schedule: Q01DX001 (ip), vehicle: saline): 160 % of control | T/C (dose: 24.0 mg/kg/injection, schedule: Q01DX010 (ip), vehicle: saline): 114 % of control and 115 % of control | T/C (dose: 25.0 mg/kg/injection, schedule: Q01DX001 (ip), vehicle: saline): 150 % of control | T/C [7]: 110 % of control | T/C (dose: 96.0 mg/kg/injection, schedule: Q01DX010 (ip), vehicle: saline): 160 % of control and 161 % of control | T/C (dose: 192.0 mg/kg/injection, schedule: Q01DX010 (ip), vehicle: saline): 160 % of control | T/C (dose: 384.0 mg/kg/injection, schedule: Q01DX010 (ip), vehicle: saline): 175 % of control

CC(C)=CC(=O)OC1C2C(C)C(=O)OC2C(O)C(C)C2C=CC(=O)C21C (centres undefined)
T/C (dose: 3.12 mg/kg/injection, schedule: Q01DX009 (ip), vehicle: saline): 94 % of control | T/C (dose: 6.25 mg/kg/injection, schedule: Q01DX009 (ip), vehicle: saline): 101 % of control | T/C (dose: 12.5 mg/kg/injection, schedule: Q01DX009 (ip), vehicle: saline): 103 % of control | T/C (dose: 25.0 mg/kg/injection, schedule: Q01DX009 (ip), vehicle: saline): 120 % of control | T/C (dose: 50.0 mg/kg/injection, schedule: Q01DX009 (ip), vehicle: Klucel (hydroxypropylcellulose) (HPC)): 118 % of control | T/C [8]: 120 % of control

O=CC(S)CO (centres undefined)
T/C (dose: 12.5 mg/kg/injection, schedule: Q01DX010 (ip), vehicle: carboxymethylcellulose (CMC)): 122 % of control | T/C (dose: 25.0 mg/kg/injection, schedule: Q01DX010 (ip), vehicle: carboxymethylcellulose (CMC)): 122 % of control | T/C (dose: 50.0 mg/kg/injection, schedule: Q01DX010 (ip), vehicle: carboxymethylcellulose (CMC)): 166 % of control | T/C (dose: 100.0 mg/kg/injection, schedule: Q01DX010 (ip), vehicle: carboxymethylcellulose (CMC)): 166 % of control

Cc1cc(Cl)nc(Nc2ccccc2)n1
T/C (dose: 3.12 mg/kg/injection, schedule: Q01DX009 (ip), vehicle: DMSO): 100 % of control | T/C (dose: 6.25 mg/kg/injection, schedule: Q01DX009 (ip), vehicle: DMSO): 95 % of control and 100 % of control | T/C (dose: 6.25 mg/kg/injection, schedule: Q04DX003 (ip), vehicle: DMSO): 100 % of control | T/C (dose: 12.5 mg/kg/injection, schedule: Q01DX009 (ip), vehicle: DMSO): 100 % of control | T/C (dose: 12.5 mg/kg/injection, schedule: Q04DX003 (ip), vehicle: DMSO): 108 % of control | T/C (dose: 25.0 mg/kg/injection, schedule: Q01DX009 (ip), vehicle: DMSO): 95 % of control | T/C (dose: 25.0 mg/kg/injection, schedule: Q04DX003 (ip), vehicle: DMSO): 91 % of control

C1CCC(=[N+]2CCCC2)CC1
T/C [8]: 100 % of control | T/C (dose: 100.0 mg/kg/injection, schedule: Q01DX009 (ip), vehicle: saline): 100 % of control | T/C (dose: 100.0 mg/kg/injection, schedule: Q04DX003 (ip), vehicle: saline): 109 % of control | T/C (dose: 200.0 mg/kg/injection, schedule: Q01DX009 (ip), vehicle: saline): 112 % of control | T/C (dose: 200.0 mg/kg/injection, schedule: Q04DX003 (ip), vehicle: saline): 100 % of control

C/C(=N\O)c1ccc2ccc3ccccc3c2c1
T/C (dose: 50.0 mg/kg/injection, schedule: Q04DX003 (ip), vehicle: saline sonified): 104 % of control | T/C (dose: 100.0 mg/kg/injection, schedule: Q04DX003 (ip), vehicle: saline sonified): 104 % of control | T/C (dose: 200.0 mg/kg/injection, schedule: Q04DX003 (ip), vehicle: saline sonified): 100 % of control

O=C(CCNOCc1ccccc1)OCc1ccccc1
T/C (dose: 12.5 mg/kg/injection, schedule: Q01DX009 (ip), vehicle: other): 101 % of control | T/C (dose: 25.0 mg/kg/injection, schedule: Q01DX009 (ip), vehicle: other): 100 % of control | T/C (dose: 50.0 mg/kg/injection, schedule: Q01DX009 (ip), vehicle: other): 101 % of control | T/C (dose: 200.0 mg/kg/injection, schedule: Q01DX009 (ip), vehicle: other): 89 % of control

COC(=O)c1cc(=O)nc(NN=C2CCCCC2)s1
T/C (dose: 50.0 mg/kg/injection, schedule: Q01DX005 (ip), vehicle: saline with Tween-80): 99 % of control | T/C (dose: 100.0 mg/kg/injection, schedule: Q01DX005 (ip), vehicle: saline with Tween-80): 103 % of control
